Patent publication US11780821B2, “Inhibitors of fibroblast activation protein” (Praxis Biotech LLC, priority 2017, dated 2023)
pIC50: −log10 of the molar value. Where two headings read alike, the source gives them in different places.

Key:
[1] = molecular target: T1, recombinant mouse PREP (rmPREP) (Mus musculus, UniProt Q9QUR6); assay: PREP enzymatic activity assay; type: biochemical; settings: Z-Gly-Pro-AMC substrate
T1 construct: purchased R&S system (so in the source)
Method: 7-Amino-4-Methylcoumarin (AMC) release was detected by measuring fluorescence at Ex/Em 380/460 nm using a Multifunction Microplate Reader (Synergy 4, Biotek). All measurements were carried out in triplicate.

[2] = molecular target: T2, recombinant mouse FAPα (rmFAPα) (Mus musculus, UniProt P97321); assay: FAPα enzymatic exopeptidase (dipeptidase) activity assay; type: biochemical; settings: exopeptidase, read-out: rmFAPα (exo IC50)
T2 construct: purchased R&S system (so in the source)
T2 sequence (P97321 1-761): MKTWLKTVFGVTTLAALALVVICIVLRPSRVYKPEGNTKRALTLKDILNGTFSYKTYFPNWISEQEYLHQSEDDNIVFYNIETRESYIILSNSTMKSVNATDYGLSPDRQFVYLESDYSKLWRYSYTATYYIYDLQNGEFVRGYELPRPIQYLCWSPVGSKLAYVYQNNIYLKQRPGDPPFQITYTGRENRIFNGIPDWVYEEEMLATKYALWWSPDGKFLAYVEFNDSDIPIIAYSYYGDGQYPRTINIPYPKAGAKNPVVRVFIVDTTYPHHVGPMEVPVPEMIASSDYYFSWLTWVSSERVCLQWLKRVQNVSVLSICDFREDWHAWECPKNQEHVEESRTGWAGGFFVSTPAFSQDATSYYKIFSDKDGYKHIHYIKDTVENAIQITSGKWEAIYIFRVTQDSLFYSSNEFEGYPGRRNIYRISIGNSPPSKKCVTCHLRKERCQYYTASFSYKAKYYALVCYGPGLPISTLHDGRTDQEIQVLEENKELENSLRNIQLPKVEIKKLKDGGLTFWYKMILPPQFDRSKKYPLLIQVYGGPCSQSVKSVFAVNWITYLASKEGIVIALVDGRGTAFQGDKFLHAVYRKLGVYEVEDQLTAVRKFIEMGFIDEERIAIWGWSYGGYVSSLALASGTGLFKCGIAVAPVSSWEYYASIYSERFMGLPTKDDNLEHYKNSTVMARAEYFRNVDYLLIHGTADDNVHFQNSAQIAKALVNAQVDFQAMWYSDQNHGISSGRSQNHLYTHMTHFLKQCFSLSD

[3] = molecular target: T2, recombinant mouse FAPα (rmFAPα); assay: as above; type: biochemical; settings: 1 μM test compound; Z-Gly-Pro-AMC substrate; read-out: rmFAPα (% exo inh @ 1 μM)
How it was run: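 AMC release read by fluorescence at Ex/Em 380/460 nm. Substrate-only (no enzyme) wells subtracted as blank; percent inhibition relative to vehicle + enzyme + substrate as maximal activity. Single-point measurement, run in duplicate.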

endogenous FAP in plasma = assay: PD study in hamsters: plasma FAP activity and endogenous FGF21; type: in vivo, Golden Syrian hamsters; settings: hamster, 1 mg/kg IV or 10 mg/kg PO
Method: To assess the effect of FAP inhibition by an exemplary compound over the cleavage of endogenously produced FGF21, in vivo PK/PD studies were conducted in male Golden Syrian hamsters following single intravenous and oral administration of an exemplary compound.
Hamsters from Group 1 received an intravenous bolus via jugular vein of 1 mg/kg of compound 13 (an exemplary compound). On the other hand, hamsters from Group 2 received an intragastric bolus of 10 mg/kg of compound 13 (an exemplary compound) using feeding needles.
Plasma samples were collected at 5, 10, 15, 30, 60, 120, 240, 360, 480 and 1440 minutes post-dose in both IV and PO groups. Hamsters from group 3 were not dosed and were used to collect samples of zero time point and baseline levels of FAP activity and endogenous FGF21.
Blood aliquots (100-150 μL) were collected from jugular vein catheterized hamsters in tubes coated with EDTA-K2, mixed gently, then kept on ice and centrifuged at 2,500×g for 15 minutes at 4° C., within 1 hour of collection. […]
Levels of endogenous hamster FGF21 in the plasma samples were quantified by using an ELISA kit (Cat. No. #EZRMFGF21-26K, Millipore) according to the manufacturer's instructions. […] Plasma samples of non-dosed animals were analyzed as a pool of plasma. […]

T1 sequence (Q9QUR6 whole entry): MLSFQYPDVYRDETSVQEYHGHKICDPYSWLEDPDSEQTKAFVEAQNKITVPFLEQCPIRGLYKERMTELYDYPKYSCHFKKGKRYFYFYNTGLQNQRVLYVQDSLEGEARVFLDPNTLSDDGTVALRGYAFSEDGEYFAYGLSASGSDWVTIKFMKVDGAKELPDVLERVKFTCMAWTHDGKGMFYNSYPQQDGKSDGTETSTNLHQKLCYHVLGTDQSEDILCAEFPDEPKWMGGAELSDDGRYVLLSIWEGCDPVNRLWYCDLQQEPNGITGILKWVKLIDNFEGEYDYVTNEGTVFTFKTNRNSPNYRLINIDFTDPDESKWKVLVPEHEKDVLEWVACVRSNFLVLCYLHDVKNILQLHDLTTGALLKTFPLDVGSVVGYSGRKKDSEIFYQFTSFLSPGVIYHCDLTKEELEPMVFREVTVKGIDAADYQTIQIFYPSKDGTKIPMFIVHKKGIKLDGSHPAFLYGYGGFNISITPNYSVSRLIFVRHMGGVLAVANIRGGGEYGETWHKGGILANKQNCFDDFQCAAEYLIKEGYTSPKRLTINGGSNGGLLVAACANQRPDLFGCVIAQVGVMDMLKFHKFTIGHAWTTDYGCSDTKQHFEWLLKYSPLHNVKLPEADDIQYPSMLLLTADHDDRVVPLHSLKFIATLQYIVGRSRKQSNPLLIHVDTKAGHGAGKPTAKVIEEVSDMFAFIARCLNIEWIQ

| SMILES | pIC50 [1] | inhibition at 1 µM [3] [%] | pIC50 ([2]; Table 2, Z-Gly-Pro-AMC) | pIC50 ([2]; Table 3) | FAP activity in plasma compared with baseline levels (endogenous FAP in plasma) | levels of total endogenous FGF21 in plasma (endogenous FAP in plasma; ELISA) |
| --- | --- | --- | --- | --- | --- | --- |
| N#C[C@@H]1CC(F)(F)CN1C(=O)CNC(=O)c1ccncc1C1CC1 [Compound 24, (S)—N-(2-(2-cyano-4,4-difluoropyrrolidin-1-yl)-2-oxoethyl)-3-cyclopropylisonicotinamide] | – | – | > 6.00 | > 6.00 | – | – |
| N#C[C@@H]1CC(F)(F)CN1C(=O)CNC(=O)c1ccncc1-c1ccc(F)cc1 [Compound 52, (S)—N-(2-(2-cyano-4,4-difluoropyrrolidin-1-yl)-2-oxoethyl)-3-(4-fluorophenyl)isonicotinamide] | – | – | > 6.00 | > 6.00 | – | – |
| N#C[C@@H]1CC(F)(F)CN1C(=O)CNC(=O)c1ccncc1-c1ccccc1 [Compound 13, (S)—N-(2-(2-cyano-4,4-difluoropyrrolidin-1-yl)-2-oxoethyl)-3-phenylisonicotinamide] | < 5.00 | – | > 6.00 | > 6.00 | diminished quickly | increased in the most of hamsters |
| N#C[C@@H]1CC(F)(F)CN1C(=O)CNC(=O)c1ccncc1N1CCOCC1 [Compound 88, N-[2-[(2S)-2-cyano-4,4-difluoro-pyrrolidin-1-yl]-2-oxo-ethyl]-3-morpholino-pyridine-4-carboxamide] | – | – | – | > 6.00 | – | – |

Now from value to compound, other results behind:

| pIC50 [1] | inhibition at 1 µM [3] [%] | SMILES | pIC50 ([2]; Table 2, Z-Gly-Pro-AMC) | pIC50 ([2]; Table 3) | FAP activity in plasma compared with baseline levels (endogenous FAP in plasma) | levels of total endogenous FGF21 in plasma (endogenous FAP in plasma; ELISA) |
| --- | --- | --- | --- | --- | --- | --- |
| < 5.00 | – | N#C[C@@H]1CC(F)(F)CN1C(=O)CNC(=O)c1c[nH]c(=O)c(-c2ccccc2)c1 [Compound 14, (S)—N-(2-(2-cyano-4,4-difluoropyrrolidin-1-yl)-2-oxoethyl)-6-oxo-5-phenyl-1,6-dihydropyridine-3-carboxamide] | – | – | – | – |
| 5.00 to 6.00 | > 50 | N#C[C@@H]1CC(F)(F)CN1C(=O)CNC(=O)c1c[nH]c(=O)c2ccccc12 [Example 1, (S)—N-(2-(2-cyano-4,4-difluoropyrrolidin-1-yl)-2-oxoethyl)-1-oxo-1,2-dihydroisoquinoline-4-carboxamide] | > 6.00 | > 6.00 | – | – |
